Measurements as given in the supplement of paper PMC10307832.

Tests used:
Experiment in all cases: relative viability (nuclei count vs DMSO), 5 days (fraction); higher = more cells survive
[1] = compound: CC1(C)CCC(CN2CCN(c3ccc(C(=O)NS(=O)(=O)c4ccc(NCC5CCOCC5)c([N+](=O)[O-])c4)c(Oc4cnc5[nH]ccc5c4)c3)CC2)=C(c2ccc(Cl)cc2)C1 [Venetoclax] + CS(=O)(=O)CCNCc1ccc(-c2ccc3ncnc(Nc4ccc(OCc5cccc(F)c5)c(Cl)c4)c3c2)o1 [Lapatinib] (partner 2 µM)
Method in brief: (§1)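 Medians of duplicate plates are given as relative viability. That measure is the nuclei count in treated wells divided by the count in vehicle wells. Counts were taken on 4× images of lung cancer cell lines in 1536-well plates, 5 days after pin-tool dosing the day after seeding with one drug alone or a fixed anchor-drug dose plus five library-drug doses (not always all listed) in √10 steps.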

[2] = compound: Cn1cnc2c(F)c(Nc3ccc(Br)cc3Cl)c(C(=O)NOCCO)cc21 [Selumetinib] + Cc1cc(Nc2cc(N3CCN(C)CC3)nc(Sc3ccc(NC(=O)C4CC4)cc3)n2)n[nH]1 [Tozasertib] (partner 0.1 µM)
Method in brief: as §1

[3] = compound: Cn1cnc2c(F)c(Nc3ccc(Br)cc3Cl)c(C(=O)NOCCO)cc21 [Selumetinib] + Cc1nc(NC(=O)N2CCC[C@H]2C(N)=O)sc1-c1ccnc(C(C)(C)C(F)(F)F)c1 [Alpelisib] (partner 2 µM)
Method in brief: as §1

[4] = compound: Cn1cnc2c(F)c(Nc3ccc(Br)cc3Cl)c(C(=O)NOCCO)cc21 [Selumetinib] + O=C(c1cc(Cc2n[nH]c(=O)c3ccccc23)ccc1F)N1CCN(C(=O)C2CC2)CC1 [Olaparib] (partner 8 µM)
Method in brief: as §1

Cell Line | relative viability ([1]; first compound 0.01 µM) | relative viability ([1]; first compound 0.03162 µM) | relative viability ([1]; first compound 0.1 µM) | relative viability ([1]; first compound 0.3162 µM) | relative viability ([1]; first compound 1 µM) | relative viability ([2]; first compound 0.02 µM) | relative viability ([2]; first compound 0.06325 µM) | relative viability ([2]; first compound 0.2 µM) | relative viability ([2]; first compound 0.6325 µM) | relative viability ([3]; first compound 0.02 µM) | relative viability ([3]; first compound 0.06325 µM) | relative viability ([3]; first compound 0.2 µM) | relative viability ([3]; first compound 0.6325 µM) | relative viability ([4]; first compound 0.02 µM) | relative viability ([4]; first compound 0.06325 µM) | relative viability ([4]; first compound 0.2 µM) | relative viability ([4]; first compound 0.6325 µM)
NCI-H358 | 0.502 | 0.452 | 0.412 | 0.499 | 0.468 | 0.128 | 0.0891 | 0.0985 | 0.0883 | 0.645 | 0.472 | 0.39 | 0.305 | 0.463 | 0.367 | 0.282 | 0.207
NCI-H460 | 0.971 | 0.974 | 0.994 | 0.935 | 0.866 | 0.379 | 0.283 | 0.246 | 0.152 | 0.464 | 0.21 | 0.172 | 0.137 | 0.433 | 0.384 | 0.342 | 0.225
NCI-H520 | 0.86 | 0.979 | 0.76 | 0.903 | 0.732 | 0.477 | 0.435 | 0.461 | 0.52 | 0.992 | 0.762 | 0.86 | 1 | 0.331 | 0.349 | 0.363 | 0.3
NCI-H596 | 1.09 | 1.24 | 0.971 | 1.15 | 1.11 | 0.883 | 0.899 | 0.668 | 0.648 | 0.548 | 0.43 | 0.353 | 0.162 | 0.596 | 0.663 | 0.572 | 0.599
NCI-H647 | 1.14 | 1.15 | – | 1.21 | 0.978 | 0.409 | 0.168 | 0.319 | 0.358 | 1.14 | 1.09 | 0.932 | 0.809 | 0.608 | 0.605 | 0.479 | 0.643
NCI-H650 | 0.726 | 0.86 | – | 0.963 | 0.882 | 0.85 | 0.692 | 0.864 | 0.533 | 1.33 | 1.08 | 1.19 | 1.09 | 0.478 | 0.514 | 0.47 | 0.526
NCI-H661 | 0.519 | 0.615 | 0.491 | 0.5 | 0.487 | 0.381 | 0.366 | 0.386 | 0.374 | 0.653 | 0.598 | 0.501 | 0.606 | 0.808 | 0.722 | 0.696 | 0.727
NCI-H727 | 0.904 | 1 | 0.857 | 0.791 | 0.753 | 0.403 | 0.357 | 0.338 | 0.294 | 0.309 | 0.225 | 0.253 | 0.202 | 0.665 | 0.558 | 0.383 | 0.431
NCI-H838 | 0.977 | 1.07 | 0.962 | 0.978 | 0.891 | 0.261 | 0.226 | 0.229 | 0.245 | 0.847 | 0.81 | 0.807 | 0.704 | 0.727 | 0.67 | 0.652 | 0.662
NCI-H1355 | 1.02 | 1.02 | 0.968 | 0.93 | 0.993 | 0.536 | 0.567 | 0.445 | 0.414 | 0.77 | 0.791 | 0.591 | 0.444 | 0.696 | 0.614 | 0.616 | 0.534
NCI-H1395 | 1.37 | 1.09 | 0.958 | 1.09 | 0.964 | 0.714 | 0.702 | 0.718 | 0.748 | 0.981 | 1.05 | 0.953 | 1.02 | 0.452 | 0.488 | 0.482 | 0.46
NCI-H1437 | 0.766 | 0.873 | 0.758 | 0.742 | 0.703 | 0.319 | 0.359 | 0.274 | 0.2 | 0.914 | 0.855 | 0.292 | 0.206 | 0.665 | 0.58 | 0.549 | 0.47
NCI-H1651 | 0.92 | 0.885 | 0.747 | 0.905 | 0.764 | 0.644 | 0.643 | 0.591 | 0.537 | 0.779 | 0.899 | 0.975 | 0.828 | 0.189 | 0.201 | 0.182 | 0.171
NCI-H1666 | 0.536 | 0.664 | 0.519 | 0.624 | 0.515 | 0.589 | 0.489 | 0.528 | 0.554 | 0.701 | 0.721 | 0.478 | 0.551 | 0.722 | 0.711 | 0.715 | 0.686
NCI-H1734 | 1.1 | 0.993 | 0.925 | 0.921 | 1.07 | 0.244 | 0.251 | 0.234 | 0.227 | 0.638 | 0.66 | 0.587 | 0.596 | 0.604 | 0.391 | 0.557 | 0.56
NCI-H1755 | 1.05 | 1.08 | 0.796 | 1.04 | 0.961 | 0.597 | 0.552 | 0.563 | 0.558 | 0.896 | 0.845 | 0.783 | 0.856 | 0.848 | 0.787 | 0.807 | 0.847
NCI-H1793 | 0.677 | 0.758 | 0.443 | 0.613 | 0.551 | 0.314 | 0.269 | 0.235 | 0.221 | 0.786 | 0.646 | 0.41 | 0.452 | 0.765 | 0.531 | 0.421 | 0.39
NCI-H1915 | 0.966 | 0.935 | 0.918 | 0.926 | 0.9 | 0.428 | 0.568 | 0.319 | 0.303 | 1.02 | 0.936 | 0.692 | 0.49 | 0.259 | 0.248 | 0.214 | 0.192
NCI-H1944 | 0.859 | 0.654 | 0.802 | 0.853 | 0.912 | 0.238 | 0.228 | 0.233 | 0.203 | 0.71 | 0.677 | 0.594 | 0.52 | 0.394 | 0.386 | 0.359 | 0.318
